Data from ChEMBL document CHEMBL1201862, “PubChem BioAssay data set” (2004).
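1) Cells in 96-well plates. 2) Compound, 48 h, 5 concentrations. 3) Linear interpolation between surrounding doses. 4) Unreached endpoint = highest concentration. GI50 marks 50% less growth.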 Active and inactive are the calls of the source. No stated cut-off is given here; in the data, active = GI50 up to about 1.1 µM and inactive = higher.

How the values were obtained:
Experiment in all cases: inhibition of tumour cell growth, NCI panel, 48 h
SF-295 = tested on: SF-295
HOP-92 = tested on: HOP-92
786-0 = tested on: 786-0
MDA-MB-231 = tested on: MDA-MB-231
RXF 393 = tested on: RXF 393
SW-620 = tested on: SW-620
NCI-H522 = tested on: NCI-H522
SF-268 = tested on: SF-268
SK-MEL-28 = tested on: SK-MEL-28
MDA-MB-435 = tested on: MDA-MB-435
OVCAR-5 = tested on: OVCAR-5
A549 = tested on: A549
K562 = tested on: K562
COLO 205 = tested on: COLO 205
IGROV-1 = tested on: IGROV-1
MCF7 = tested on: MCF7
NCI-H460 = tested on: NCI-H460
SK-OV-3 = tested on: SK-OV-3
EKVX = tested on: EKVX
T47D = tested on: T47D

Measured: GI50

O=C(/C=C/c1ccc2c(c1)OCO2)c1ccc(O)cc1
inactive: SF-295 17.5 µM | HOP-92 14.5 µM | 786-0 1.63 µM | MDA-MB-231 17.4 µM | RXF 393 15.6 µM | SW-620 12.1 µM | NCI-H522 3.01 µM | SF-268 45.9 µM | SK-MEL-28 19.3 µM | MDA-MB-435 14.8 µM | OVCAR-5 17.5 µM | A549 17.4 µM | K562 5.58 µM | COLO 205 17.3 µM | IGROV-1 15.1 µM | MCF7 11.1 µM | NCI-H460 15 µM | SK-OV-3 16.5 µM | EKVX 16.6 µM

CC(C)[Si](Oc1ccc(CC2N(C(=O)c3ccc([N+](=O)[O-])cc3)C(CCc3ccccc3)CC2(C)C=O)cc1)(C(C)C)C(C)C (centres undefined)
inactive: SF-295 7.05 µM | HOP-92 13.9 µM | 786-0 17.2 µM | MDA-MB-231 12.9 µM | RXF 393 5.85 µM | NCI-H522 > 100 µM | SF-268 19.4 µM | SK-MEL-28 > 100 µM | OVCAR-5 > 100 µM | COLO 205 > 100 µM | IGROV-1 7.38 µM | T47D > 100 µM | SK-OV-3 27.7 µM | EKVX 82.6 µM

COc1ccc(/N=C2\S/C(=N\C(=N\c3ccccc3)SCc3ccccc3)N(c3ccccc3)\C2=N/c2ccc(OC)cc2)cc1
inactive: HOP-92 > 100 µM | 786-0 > 100 µM | MDA-MB-231 > 100 µM | RXF 393 > 100 µM | SW-620 > 100 µM | SK-MEL-28 62.4 µM | A549 > 100 µM | K562 > 100 µM | COLO 205 > 100 µM | IGROV-1 > 100 µM | MCF7 > 100 µM | T47D > 100 µM | EKVX > 100 µM

CCOC(=O)C(O)(CC1=NC(C(=O)OC)(C(=O)OC)C(c2cccc(C=O)c2)O1)C(=O)OCC (centres undefined)
inactive: HOP-92 > 100 µM | 786-0 > 100 µM | RXF 393 > 100 µM | SW-620 > 100 µM | SK-MEL-28 > 100 µM | MDA-MB-435 > 100 µM | OVCAR-5 > 100 µM | A549 > 100 µM | K562 > 100 µM | COLO 205 > 100 µM | IGROV-1 > 100 µM | MCF7 > 100 µM | T47D > 100 µM | NCI-H460 > 100 µM | SK-OV-3 > 100 µM | EKVX > 100 µM

CN(/N=C/c1cccc2cccnc12)c1ccc(Cl)cc1[N+](=O)[O-]
inactive: SF-295 > 100 µM | HOP-92 31.7 µM | 786-0 > 100 µM | MDA-MB-231 > 100 µM | RXF 393 > 100 µM | SW-620 > 100 µM | NCI-H522 > 100 µM | SF-268 > 100 µM | MDA-MB-435 > 100 µM | OVCAR-5 > 100 µM | A549 > 100 µM | K562 > 100 µM | COLO 205 > 100 µM | IGROV-1 > 100 µM | MCF7 31.6 µM | NCI-H460 45.7 µM | SK-OV-3 > 100 µM | EKVX > 100 µM

O=c1[nH]c(=O)n2n1C1C=CC2CC1
inactive: SF-295 > 100 µM | HOP-92 > 100 µM | 786-0 > 100 µM | MDA-MB-231 > 100 µM | SW-620 > 100 µM | SF-268 > 100 µM | SK-MEL-28 > 100 µM | MDA-MB-435 > 100 µM | OVCAR-5 > 100 µM | A549 > 100 µM | K562 > 100 µM | COLO 205 > 100 µM | IGROV-1 > 100 µM | MCF7 > 100 µM | T47D > 100 µM | NCI-H460 > 100 µM | SK-OV-3 > 100 µM | EKVX > 100 µM

CN(C(=O)C1CCCCCC1=O)c1ccccc1Cl (centres undefined)
inactive: SF-295 > 100 µM | HOP-92 > 100 µM | 786-0 > 100 µM | MDA-MB-231 > 100 µM | RXF 393 > 100 µM | SW-620 > 100 µM | NCI-H522 > 100 µM | SF-268 > 100 µM | SK-MEL-28 > 100 µM | MDA-MB-435 > 100 µM | OVCAR-5 > 100 µM | A549 > 100 µM | COLO 205 > 100 µM | IGROV-1 > 100 µM | T47D > 100 µM | NCI-H460 > 100 µM | SK-OV-3 > 100 µM | EKVX > 100 µM

COC(=O)c1c(C(=O)OC)c2ccccn2c1-c1cc(OC)c(Br)c(=O)o1
inactive: SF-295 > 100 µM | 786-0 > 100 µM | MDA-MB-231 83.8 µM | RXF 393 > 100 µM | SW-620 > 100 µM | NCI-H522 68.7 µM | SF-268 > 100 µM | SK-MEL-28 > 100 µM | MDA-MB-435 > 100 µM | OVCAR-5 > 100 µM | A549 > 100 µM | K562 > 100 µM | COLO 205 > 100 µM | IGROV-1 > 100 µM | T47D > 100 µM | NCI-H460 > 100 µM | SK-OV-3 > 100 µM | EKVX > 100 µM
